According to US8003785B2 (Takeda Pharmaceutical Company Limited, priority 2008, dated 2011):

Target: T1, PLK1 (Homo sapiens, UniProt P53350)
T1 construct: Full-length, active GST-PLK1 is purified from Sf9 insect cells; made in house; host or cells: Sf9 insect cells
Experiment: Biochemical Characterization Assay: HTRF kinase assay, GST-PLK1 phosphorylation of GST-p53
Settings: GST-PLK1, GST-p53 substrate, ATP
Summary of the method: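 Full-length active GST-PLK1 (Sf9, 3 ug/mL) phosphorylated full-length GST-p53 (E. coli) in Kinase Assay Buffer for 35 min at 37 °C. Stopped with EDTA; phospho-p53 detected by HTRF with anti-phospho-p53, Eu-anti-rabbit and APC-anti-GST antibodies.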

T1 sequence (P53350 whole entry): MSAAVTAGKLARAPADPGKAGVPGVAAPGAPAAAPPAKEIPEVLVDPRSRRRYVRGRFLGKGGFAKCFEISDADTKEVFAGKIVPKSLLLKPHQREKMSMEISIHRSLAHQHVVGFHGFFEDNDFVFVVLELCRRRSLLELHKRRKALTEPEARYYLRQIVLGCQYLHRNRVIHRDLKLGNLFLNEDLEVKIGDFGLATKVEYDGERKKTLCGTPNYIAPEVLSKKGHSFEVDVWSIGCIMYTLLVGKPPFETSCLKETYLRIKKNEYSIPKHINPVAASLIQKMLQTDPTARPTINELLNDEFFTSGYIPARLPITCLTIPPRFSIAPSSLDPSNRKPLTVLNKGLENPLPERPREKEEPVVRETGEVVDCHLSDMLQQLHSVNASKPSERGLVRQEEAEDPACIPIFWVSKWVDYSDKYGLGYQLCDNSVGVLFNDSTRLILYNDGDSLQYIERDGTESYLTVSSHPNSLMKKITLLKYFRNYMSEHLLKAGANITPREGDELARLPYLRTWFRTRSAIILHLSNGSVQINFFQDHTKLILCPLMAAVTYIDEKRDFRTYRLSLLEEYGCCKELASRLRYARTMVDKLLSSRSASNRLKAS

IC50	SMILES
500 to 5000 nM	CNC(=O)c1ccc(Nc2ncc3c(n2)N(C2CCCC2)CC(F)(F)C(=O)N3)cc1 [Example I-133, 4-(9-cyclopentyl-7,7-difluoro-6-oxo-6,7,8,9-tetrahydro-5H-pyrimido[4,5-b][1,4]diazepin-2-ylamino)-N-methyl-benzamide]
51 to 500 nM	CN1CCC(NC(=O)c2ccc(Nc3ncc4c(n3)N(C3CCCC3)CC(F)(F)C(=O)N4)cc2)CC1 [Example I-134, 4-(9-cyclopentyl-7,7-difluoro-6-oxo-6,7,8,9-tetrahydro-5H-pyrimido[4,5-b][1,4]diazepin-2-ylamino)-N-(1-methyl-piperidin-4-yl)-benzamide]
500 to 5000 nM	CN(C)CCCNC(=O)c1ccc(Nc2ncc3c(n2)N(C2CCCC2)CC(F)(F)C(=O)N3)cc1 [Example I-135, 4-(9-cyclopentyl-7,7-difluoro-6-oxo-6,7,8,9-tetrahydro-5H-pyrimido[4,5-b][1,4]diazepin-2-yl-amino)-N-(3-dimethyl-amino-propyl)-benzamide]
500 to 5000 nM	O=C(NC1CCOCC1)c1ccc(Nc2ncc3c(n2)N(C2CCCC2)CC(F)(F)C(=O)N3)cc1 [Example I-136, 4-(9-cyclopentyl-7,7-difluoro-6-oxo-6,7,8,9-tetrahydro-5H-pyrimido[4,5-b][1,4]diazepin-2-ylamino)-N-(tetrahydro-pyran-4-yl)-benzamide]
51 to 500 nM	COc1cc(C(=O)NC2CCN(C)CC2)ccc1Nc1ncc2c(n1)N(C1CCCC1)CC(F)(F)C(=O)N2 [Example I-137, 4-(9-cyclopentyl-7,7-difluoro-6-oxo-6,7,8,9-tetrahydro-5H-pyrimido[4,5-b][1,4]diazepin-2-ylamino)-3-methoxy-N-(1-methyl-piperidin-4-yl)-benzamide]
500 to 5000 nM	CCN1C(=O)C(F)(F)CN(C2CCCC2)c2nc(Nc3ccc(C(N)=O)cc3)ncc21 [Example I-139, 4-(9-cyclopentyl-5-ethyl-7,7-difluoro-6-oxo-6,7,8,9-tetrahydro-5H-pyrimido[4,5-b][1,4]diazepin-2-ylamino)-benzamide]
500 to 5000 nM	CCN1C(=O)C(F)(F)CN(C2CCCC2)c2nc(Nc3ccc(C(=O)NC)cc3)ncc21 [Example I-140, 4-(9-cyclopentyl-5-ethyl-7,7-difluoro-6-oxo-6,7,8,9-tetrahydro-5H-pyrimido[4,5-b][1,4]diazepin-2-ylamino)-N-methyl-benzamide]
51 to 500 nM	CCN1C(=O)C(F)(F)CN(C2CCCC2)c2nc(Nc3ccc(C(=O)NC4CCN(C)CC4)cc3)ncc21 [Example I-141, 4-(9-cyclopentyl-5-ethyl-7,7-difluoro-6-oxo-6,7,8,9-tetrahydro-5H-pyrimido[4,5-b][1,4]diazepin-2-ylamino)-N-(1-methyl-piperidin-4-yl)-benzamide]
500 to 5000 nM	CCN1C(=O)C(F)(F)CN(C2CCCC2)c2nc(Nc3ccc(C(=O)NCCCN(C)C)cc3)ncc21 [Example I-142, 4-(9-cyclopentyl-5-ethyl-7,7-difluoro-6-oxo-6,7,8,9-tetrahydro-5H-pyrimido[4,5-b][1,4]diazepin-2-yl-amino)-N-(3-dimethyl-amino-propyl)-benzamide]
500 to 5000 nM	CCN1C(=O)C(F)(F)CN(C2CCCC2)c2nc(Nc3ccc(C(=O)NC4CCOCC4)cc3)ncc21 [Example I-143, 4-(9-cyclopentyl-5-ethyl-7,7-difluoro-6-oxo-6,7,8,9-tetrahydro-5H-pyrimido[4,5-b][1,4]diazepin-2-ylamino)-N-(tetrahydro-pyran-4-yl)-benzamide]
500 to 5000 nM	CCCN1C(=O)C(F)(F)CN(C2CCCC2)c2nc(Nc3ccc(C(N)=O)cc3)ncc21 [Example I-145, 4-(9-cyclopentyl-7,7-difluoro-6-oxo-5-propyl-6,7,8,9-tetrahydro-5H-pyrimido[4,5-b][1,4]diazepin-2-ylamino)-benzamide]
500 to 5000 nM	CCCN1C(=O)C(F)(F)CN(C2CCCC2)c2nc(Nc3ccc(C(=O)NC)cc3)ncc21 [Example I-146, 4-(9-cyclopentyl-7,7-difluoro-6-oxo-5-propyl-6,7,8,9-tetrahydro-5H-pyrimido[4,5-b][1,4]diazepin-2-ylamino)-N-methyl-benzamide]
51 to 500 nM	CCCN1C(=O)C(F)(F)CN(C2CCCC2)c2nc(Nc3ccc(C(=O)NC4CCN(C)CC4)cc3)ncc21 [Example I-147, 4-(9-cyclopentyl-7,7-difluoro-6-oxo-5-propyl-6,7,8,9-tetrahydro-5H-pyrimido[4,5-b][1,4]diazepin-2-ylamino)-N-(1-methyl-piperidin-4-yl)-benzamide]
500 to 5000 nM	CCCN1C(=O)C(F)(F)CN(C2CCCC2)c2nc(Nc3ccc(C(=O)NCCCN(C)C)cc3)ncc21 [Example I-148, 4-(9-cyclopentyl-7,7-difluoro-6-oxo-5-propyl-6,7,8,9-tetrahydro-5H-pyrimido[4,5-b][1,4]diazepin-2-yl-amino)-N-(3-dimethyl-amino-propyl)-benzamide]
500 to 5000 nM	CCCN1C(=O)C(F)(F)CN(C2CCCC2)c2nc(Nc3ccc(C(=O)NC4CCOCC4)cc3)ncc21 [Example I-149, 4-(9-cyclopentyl-7,7-difluoro-6-oxo-5-propyl-6,7,8,9-tetrahydro-5H-pyrimido[4,5-b][1,4]diazepin-2-ylamino)-N-(tetrahydro-pyran-4-yl)-benzamide]
500 to 5000 nM	COc1cc(C(=O)NC2CCN(C)CC2)ccc1Nc1ncc2c(n1)N(C1CCCC1)CC(F)(F)C(=O)N2CC(F)(F)F [Example I-150, 4-[9-cyclopentyl-7,7-difluoro-6-oxo-5-(2,2,2-trifluoro-ethyl)-6,7,8,9-tetrahydro-5H-pyrimido[4,5-b][1,4]diazepin-2-ylamino]-3-methoxy-N-(1-methyl-piperidin-4-yl)-benzamide]
500 to 5000 nM	COc1cc(C(N)=O)ccc1Nc1ncc2c(n1)N(C1CCCC1)CC(F)(F)C(=O)N2 [Example I-152, 4-(9-cyclopentyl-7,7-difluoro-6-oxo-6,7,8,9-tetrahydro-5H-pyrimido[4,5-b][1,4]diazepin-2-ylamino)-3-methoxy-benzamide]
500 to 5000 nM	CNC(=O)c1ccc(Nc2ncc3c(n2)N(C2CCCC2)CC(F)(F)C(=O)N3)c(OC)c1 [Example I-153, 4-(9-cyclopentyl-7,7-difluoro-6-oxo-6,7,8,9-tetrahydro-5H-pyrimido[4,5-b][1,4]diazepin-2-ylamino)-3-methoxy-N-methyl-benzamide]
500 to 5000 nM	COc1cc(C(=O)NCCCN(C)C)ccc1Nc1ncc2c(n1)N(C1CCCC1)CC(F)(F)C(=O)N2 [Example I-154, 4-(9-cyclopentyl-7,7-difluoro-6-oxo-6,7,8,9-tetrahydro-5H-pyrimido[4,5-b][1,4]diazepin-2-ylamino)-N-(3-dimethylamino-propyl)-3-methoxy-benzamide]
> 5000 nM	COc1cc(C(=O)NC2CCOCC2)ccc1Nc1ncc2c(n1)N(C1CCCC1)CC(F)(F)C(=O)N2 [Example I-155, 4-(9-cyclopentyl-7,7-difluoro-6-oxo-6,7,8,9-tetrahydro-5H-pyrimido[4,5-b][1,4]diazepin-2-ylamino)-3-methoxy-N-(tetrahydro-pyran-4-yl)-benzamide]
500 to 5000 nM	CCN1C(=O)C(F)(F)CN(C2CCCC2)c2nc(Nc3ccc(C(N)=O)cc3OC)ncc21 [Example I-157, 4-(9-cyclopentyl-5-ethyl-7,7-difluoro-6-oxo-6,7,8,9-tetrahydro-5H-pyrimido[4,5-b][1,4]diazepin-2-yl-amino)-3-methoxy-benzamide]
